Experimental data: patent US20260138961A1, “MODULATORS OF MITOCHONDRIAL DNA REPLICATION” (Pretzel Therapeutics, Inc., priority 2022, published 2026)

biological target: T1, POLγA:G848S (Homo sapiens, UniProt P54098, G848S); experiment: DNA polymerization assay, POLγA:G848S mutant; type: biochemical; settings: stimulation of polymerase activity, primed M13mp18 ssDNA, 37° C. 2 hours; read-out: G848S AC50
T1 sequence (P54098 1-1239 G848S): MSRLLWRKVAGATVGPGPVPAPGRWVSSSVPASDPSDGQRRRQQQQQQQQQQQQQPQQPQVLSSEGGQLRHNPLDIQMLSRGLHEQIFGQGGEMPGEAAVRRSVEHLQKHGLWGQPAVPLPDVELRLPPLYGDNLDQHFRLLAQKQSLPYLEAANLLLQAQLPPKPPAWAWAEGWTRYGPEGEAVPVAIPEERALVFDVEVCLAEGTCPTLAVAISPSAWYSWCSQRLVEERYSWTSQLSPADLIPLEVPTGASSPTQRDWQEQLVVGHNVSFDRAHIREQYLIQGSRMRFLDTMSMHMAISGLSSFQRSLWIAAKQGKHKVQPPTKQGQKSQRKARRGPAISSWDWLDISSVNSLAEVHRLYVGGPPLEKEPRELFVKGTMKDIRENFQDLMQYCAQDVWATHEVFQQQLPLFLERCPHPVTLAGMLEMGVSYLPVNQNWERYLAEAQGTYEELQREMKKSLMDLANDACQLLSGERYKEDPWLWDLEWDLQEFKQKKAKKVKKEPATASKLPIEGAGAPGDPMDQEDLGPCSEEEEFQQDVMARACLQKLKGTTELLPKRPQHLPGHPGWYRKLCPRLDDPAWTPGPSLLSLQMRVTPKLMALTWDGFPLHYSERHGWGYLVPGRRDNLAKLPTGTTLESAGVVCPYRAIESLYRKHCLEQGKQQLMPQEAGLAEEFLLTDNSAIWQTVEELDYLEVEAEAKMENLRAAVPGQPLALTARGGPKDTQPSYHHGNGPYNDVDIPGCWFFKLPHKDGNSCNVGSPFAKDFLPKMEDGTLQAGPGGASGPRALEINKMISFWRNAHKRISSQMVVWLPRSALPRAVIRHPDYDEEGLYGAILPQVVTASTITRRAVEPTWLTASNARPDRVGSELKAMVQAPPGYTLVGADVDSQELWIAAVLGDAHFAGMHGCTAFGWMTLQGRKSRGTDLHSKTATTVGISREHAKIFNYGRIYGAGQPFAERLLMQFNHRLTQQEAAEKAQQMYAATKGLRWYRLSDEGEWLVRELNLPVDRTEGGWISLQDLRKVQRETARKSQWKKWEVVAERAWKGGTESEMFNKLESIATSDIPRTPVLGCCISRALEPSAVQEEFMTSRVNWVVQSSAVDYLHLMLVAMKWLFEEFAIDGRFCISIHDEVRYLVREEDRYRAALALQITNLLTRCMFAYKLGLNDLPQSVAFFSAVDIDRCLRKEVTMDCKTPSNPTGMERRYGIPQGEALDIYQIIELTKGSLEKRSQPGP
T1 sequence (Q9UHN1 1-485 partner): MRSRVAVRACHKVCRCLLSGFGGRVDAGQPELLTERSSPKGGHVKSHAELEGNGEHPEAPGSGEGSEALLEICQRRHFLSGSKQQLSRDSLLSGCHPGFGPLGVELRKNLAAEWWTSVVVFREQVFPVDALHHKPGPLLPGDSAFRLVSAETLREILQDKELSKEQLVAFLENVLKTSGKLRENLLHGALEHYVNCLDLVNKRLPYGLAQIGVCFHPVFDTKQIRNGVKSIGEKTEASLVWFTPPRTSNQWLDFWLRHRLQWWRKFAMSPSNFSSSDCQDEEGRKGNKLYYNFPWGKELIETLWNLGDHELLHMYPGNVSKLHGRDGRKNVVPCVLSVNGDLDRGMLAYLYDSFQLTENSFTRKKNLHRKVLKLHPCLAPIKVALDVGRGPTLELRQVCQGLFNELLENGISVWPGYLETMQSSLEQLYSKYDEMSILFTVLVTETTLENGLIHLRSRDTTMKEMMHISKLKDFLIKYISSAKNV

| AC50 | Compound |
| --- | --- |
| 98 µM | Cc1cc(S(=O)(=O)Nc2ccc3ccn(C)c3c2)c(C)cc1Cl [Example 72, 4-chloro-2,5-dimethyl-N-(1-methyl-1H-indol-6-yl)benzenesulfonamide] |
| 14 µM | Cc1nc2ccc(NS(=O)(=O)c3cc(C)c(Cl)cc3C)cc2s1 [Example 73, 4-chloro-2,5-dimethyl-N-(2-methylbenzo[d]thiazol-6-yl)benzenesulfonamide] |
| > 100 µM | Cc1cc(S(=O)(=O)Nc2ccc3nc(-c4ccccc4)sc3c2)c(C)cc1Cl [Example 74, 4-chloro-2,5-dimethyl-N-(2-phenylbenzo[d]thiazol-6-yl)benzenesulfonamide] |
| > 100 µM | Cc1nc2cc(NS(=O)(=O)c3cc(C)c(Cl)cc3C)ccc2o1 [Example 75, 4-chloro-2,5-dimethyl-N-(2-methylbenzo[d]oxazol-5-yl)benzenesulfonamide] |
| 3 µM | Cc1cc(S(=O)(=O)Nc2cccc(-c3ncc(C4CC4)s3)c2)c(C)cc1Cl [Example 76, 4-chloro-N-(3-(5-cyclopropylthiazol-2-yl)phenyl)-2,5-dimethylbenzenesulfonamide] |
| > 100 µM | Cc1cc(S(=O)(=O)Nc2ccccc2-c2ncco2)c(C)cc1Cl [Example 77, 4-chloro-2,5-dimethyl-N-(2-(oxazol-2-yl)phenyl)benzenesulfonamide] |
| > 10 µM | Cc1cnc(-c2cccc(S(=O)(=O)Nc3cc(C)c(Cl)cc3C)c2)s1 [Example 78, N-(4-chloro-2,5-dimethylphenyl)-3-(5-methylthiazol-2-yl)benzenesulfonamide] |
| > 10 µM | Cc1cnc(-c2ccccc2NS(=O)(=O)c2cc(C)c(Cl)cc2C)s1 [Example 79, 4-chloro-2,5-dimethyl-N-(2-(5-methylthiazol-2-yl)phenyl)benzenesulfonamide] |
| > 10 µM | Cc1csc(-c2ccccc2NS(=O)(=O)c2cc(C)c(Cl)cc2C)n1 [Example 80, 4-chloro-2,5-dimethyl-N-(2-(4-methylthiazol-2-yl)phenyl)benzenesulfonamide] |
| 2 µM | Cc1cc(S(=O)(=O)Nc2csc(-c3ccccc3)n2)c(C)cc1Cl [Example 81, 4-chloro-2,5-dimethyl-N-(2-phenylthiazol-4-yl)benzenesulfonamide] |
| > 10 µM | Cc1cc(S(=O)(=O)NC2CCOc3c(Cl)cccc32)c(C)cc1Cl (stereo not drawn) [Example 82, 4-chloro-N-(8-chlorochroman-4-yl)-2,5-dimethylbenzenesulfonamide] |
| 3 µM | Cc1cnc(-c2ccc(NS(=O)(=O)c3cc(C)c(Cl)cc3C)cc2)s1 [Example 83, 4-chloro-2,5-dimethyl-N-(4-(5-methylthiazol-2-yl)phenyl)benzenesulfonamide] |
| > 10 µM | Cc1cc(S(=O)(=O)Nc2cc(-c3ccccc3)no2)c(C)cc1Cl [Example 84, 4-chloro-2,5-dimethyl-N-(3-phenylisoxazol-5-yl)benzenesulfonamide] |
| > 100 µM | Cc1nc2cccc(NS(=O)(=O)c3cc(C)c(Cl)cc3C)c2s1 [Example 85, 4-chloro-2,5-dimethyl-N-(2-methylbenzo[d]thiazol-7-yl)benzenesulfonamide] |
| > 100 µM | Cc1cc(S(=O)(=O)Nc2ccc(-c3ncc(CN(C)C)s3)cc2)c(C)cc1Cl [Example 86, 4-chloro-N-(4-(5-((dimethylamino)methyl)thiazol-2-yl)phenyl)-2,5-dimethylbenzenesulfonamide] |
| 14 µM | Cc1cc(S(=O)(=O)Nc2cccc(-c3ncc(CN(C)C)s3)c2)c(C)cc1Cl [Example 87, 4-chloro-N-(3-(5-((dimethylamino)methyl)thiazol-2-yl)phenyl)-2,5-dimethylbenzenesulfonamide] |
| > 100 µM | COC(=O)c1cnc(-c2cccc(NS(=O)(=O)c3cc(C)c(Cl)cc3C)c2)s1 [Example 88, methyl 2-(3-((4-chloro-2,5-dimethylphenyl)sulfonamido)phenyl) thiazole-5-carboxylate] |
| 3 µM | Cc1cc(S(=O)(=O)Nc2cccc(-c3ncc(CO)s3)c2)c(C)cc1Cl [Example 89, 4-chloro-N-(3-(5-(hydroxymethyl)thiazol-2-yl)phenyl)-2,5-dimethylbenzenesulfonamide] |
| > 100 µM | Cc1cc(S(=O)(=O)Nc2cccc(-c3ncc(C(=O)O)s3)c2)c(C)cc1Cl [Example 90, 2-(3-((4-chloro-2,5-dimethylphenyl)sulfonamido)phenyl) thiazole-5-carboxylic acid] |
| > 100 µM | Cc1cc(S(=O)(=O)Nc2cccc(C(=O)N3CCCN(C(=O)C(C)C)CC3)c2)c(C)cc1Cl [Example 91, 4-chloro-N-(3-(4-isobutyryl-1,4-diazepane-1-carbonyl)phenyl)-2,5-dimethylbenzenesulfonamide] |
| 0.9 µM | Cc1cc(S(=O)(=O)Nc2csc(-c3ccnn3C)n2)c(C)cc1Cl [Example 182, 4-chloro-2,5-dimethyl-N-(2-(1-methyl-1H-pyrazol-5-yl)thiazol-4-yl)benzenesulfonamide] |
